Results on 28 molecules are retold here after patent US12006294B2, “Therapeutic compounds” (REGENTS OF THE UNIVERSITY OF MINNESOTA, priority 2017, dated 2024).

The assay deals with Hela Cells. Nature of the assay: Cellular ER stress model (tunicamycin, WST-8 cell viability). As to conditions: for viability at 2.5 µM: Homo sapiens, HeLa, 48 h; for % Cell Survival Cmpd(2.5 μM) + Tuni: Hela cells, compound 2.5 μM + tunicamycin, WST-8 viability 48 hours after tunicamycin treatment.
The mark [1] stands for this setting: read-out: % Cell Survival Cmpd(2.5 μM) + Tuni, Hela cells, compound 2.5 μM + tunicamycin, WST-8 viability 48 hours after tunicamycin treatment.
Setting [2] is: read-out: Compounds ERS (vs Tn), ERS activity vs Tuni = % cell survival (compound)/% cell survival (tunicamycin), compound 2.5 μM.

Molecules are shown by their SMILES. Counter-ions that a name gives are not always drawn. Like-named read-outs stand apart in the source and are kept apart here.

For `Clc1ccc(Cl)c(/C=N/NC2=NCCN2)c1Cl` [JM3-151-2, (E)-2-(2-(2,3,6-trichlorobenzylidene)hydrazinyl)-4,5-dihydro-1H-imidazole hydrochloride], the viability at 2.5 µM was 24.2% under setting [1] and 104% under setting [2].

Regarding `Clc1cccc(/C=N/NC2=NCCCN2)c1Cl` [JM3-153-2, (E)-2-(2-(2,3-dichlorobenzylidene)hydrazinyl)-1,4,5,6-tetrahydropyrimidine hydrochloride], the viability at 2.5 µM by setting is: under setting [1], 36%; under setting [2], 155%. On to `Clc1ccc(Cl)c(/C=N/NC2=NCCCN2)c1Cl` [JM3-155-2, (E)-2-(2-(2,3,6-trichlorobenzylidene)hydrazinyl)-1,4,5,6-tetrahydropyrimidine hydrochloride], for which the viability at 2.5 µM worked out at 31.2% under setting [1] and 135% under setting [2]. For `CCCCNC(=N)N/N=C/c1c(Cl)cccc1Cl` [JM3-161-2, (E)-N-butyl-2-(2,6-dichlorobenzylidene)hydrazine-1-carboximidamide hydroiodide] the same measures were 14.7% and 63%.

Consider `Clc1cccc(CC2=NCCN2)c1Cl` [JM3-179-2, 2-(2,3-dichlorobenzyl)-4,5-dihydro-1H-imidazole], for which the viability at 2.5 µM runs as follows: under setting [1], 20.4%; under setting [2], 88%. For `Clc1cccc(CC2=NCCCN2)c1Cl` [JM3-181-2, 2-(2,3-dichlorobenzyl)-1,4,5,6-tetrahydropyrimidine] the same measures were 19.6% and 102%. Turning to `N=C(N)N/N=C/c1ccccc1I` [JM3-183-2, (E)-2-(2-iodobenzylidene)hydrazine-1-carboximidamide acetate], the viability at 2.5 µM is, setting by setting: under setting [1], 24.2%; under setting [2], 104%. On to `Cc1[nH]c(N/N=C/c2c(Cl)cccc2Cl)nc(=O)c1C` [JM3-191-2, (E)-2-(2-(2,6-dichlorobenzylidene)hydrazinyl)-5,6-dimethylpyrimidin-4(1H)-one], for which the viability at 2.5 µM is, setting by setting: under setting [1], 40.6%; under setting [2], 175%. In the case of `Cc1[nH]c(N/N=C/c2cccc(Cl)c2Cl)nc(=O)c1C` [JM3-195-2, (E)-2-(2-(2,3-dichlorobenzylidene)hydrazinyl)-5,6-dimethylpyrimidin-4(1H)-one], the viability at 2.5 µM under setting [1] was 29.7% and the viability at 2.5 µM under setting [2] came out at 128%. For `Cc1cc(=O)nc(N/N=C/c2c(Cl)cccc2Cl)[nH]1` [JM3-197-2, (E)-2-(2-(2,6-dichlorobenzylidene)hydrazinyl)-6-methylpyrimidin-4(1H)-one], in that order: 20.4% and 106%.

As for `Cc1cc(=O)nc(N/N=C/c2cccc(Cl)c2Cl)[nH]1` [JM3-199-2, (E)-2-(2-(2,3-dichlorobenzylidene)hydrazinyl)-6-methylpyrimidin-4(1H)-one], the viability at 2.5 µM under setting [1] stood at 22.9% and the viability at 2.5 µM under setting [2] was found to be 120%. Regarding `Cc1cc(=O)nc(N/N=C/c2c(Cl)ccc(Cl)c2Cl)[nH]1` [JM3-201-2, (E)-6-methyl-2-(2-(2,3,6-trichlorobenzylidene)hydrazinyl)pyrimidin-4(1H)-one], the viability at 2.5 µM runs as follows: under setting [1], 20%; under setting [2], 104%. For `Cc1[nH]c(N/N=C/c2c(Cl)ccc(Cl)c2Cl)nc(=O)c1C` [JM3-205-2, (E)-5,6-dimethyl-2-(2-(2,3,6-trichlorobenzylidene)hydrazinyl)pyrimidin-4(1H)-one] the same measures were 20.7% and 108%.

Regarding `Cc1[nH]c(N/N=C/c2c(F)cccc2Cl)nc(=O)c1C` [JM3-207-2, (E)-2-(2-(2-chloro-6-fluorobenzylidene)hydrazinyl)-5,6-dimethylpyrimidin-4(1H)-one], the viability at 2.5 µM under setting [1] is 23.1% and the viability at 2.5 µM under setting [2] came to 120%. `Cc1[nH]c(N/N=C/c2ccc(Cl)c(Cl)c2)nc(=O)c1C` [JM3-209-2, (E)-2-(2-(3,4-dichlorobenzylidene)hydrazinyl)-5,6-dimethylpyrimidin-4(1H)-one]: the viability at 2.5 µM reads like this: under setting [1], 21.6%; under setting [2], 113%. As for `Cc1cc(=O)nc(N/N=C/c2ccc(Cl)c(Cl)c2)[nH]1` [JM3-211-2, (E)-2-(2-(3,4-dichlorobenzylidene)hydrazinyl)-6-methylpyrimidin-4(1H)-one], the viability at 2.5 µM is, setting by setting: under setting [1], 20.2%; under setting [2], 105%.

As for `Cc1[nH]c(N/N=C/c2ccccc2Cl)nc(=O)c1C` [JM3-213-2, (E)-2-(2-(2-chlorobenzylidene)hydrazinyl)-5,6-dimethylpyrimidin-4(1H)-one], the viability at 2.5 µM came to 22.8% under setting [1] and 119% under setting [2].

In the case of `Cc1cc(=O)nc(N/N=C/c2ccccc2Cl)[nH]1` [JM3-215-3, (E)-2-(2-(2-chlorobenzylidene)hydrazinyl)-6-methylpyrimidin-4(1H)-one], the viability at 2.5 µM was determined as 21% under setting [1] and 110% under setting [2]. For `NC(=O)N/N=C/c1ccccc1Br` [JM3-219-4, (E)-2-(2-bromobenzylidene)hydrazine-1-carboxamide hydrochloride], the viability at 2.5 µM came out at 20% under setting [1] and 104% under setting [2]. For `NC(=O)N/N=C/c1ccccc1F` [JM3-221-2, (E)-2-(2-fluorobenzylidene)hydrazine-1-carboxamide hydrochloride] the same measures were 28.9% and 122%.

For `NC(=O)N/N=C/c1ccccc1Cl` [JM3-223-2, (E)-2-(2-chlorobenzylidene)hydrazine-1-carboxamide hydrochloride], the viability at 2.5 µM was found to be 28% under setting [1] and 118% under setting [2]. As to `NC(=O)N/N=C/c1ccccc1I` [JM3-225-2, (E)-2-(2-iodobenzylidene)hydrazine-1-carboxamide hydrochloride], the viability at 2.5 µM under setting [1] was found to be 22.8% and the viability at 2.5 µM under setting [2] was determined as 96%.

`N=C(N)NNCc1c(Cl)cccc1Cl` [JM3-227-2, 2-(2,6-dichlorobenzyl)hydrazine-1-carboximidamide]: the “% Cell Survival Cmpd(2.5 μM) + Tuni” value stood at 27.92%.

For the molecule `N=C(N)N/N=C/Cc1c(Cl)cccc1Cl` [JM3-239-2, (E)-2-(2-(2,6-dichlorophenyl)ethylidene)hydrazine-1-carboximidamide acetate], the viability at 2.5 µM was found to be 28.1% under setting [1] and 119% under setting [2]. Take `N=C1NCCCN1/N=C/c1c(Cl)cccc1Cl` [JM3-255-2, (E)-1-((2,6-dichlorobenzylidene)amino)tetrahydropyrimidin-2(1H)-imine hydrobromide]: the viability at 2.5 µM stood at 24.5% under setting [1] and 104% under setting [2]. For `CN(/N=C/c1c(Cl)cccc1Cl)C(=N)N` [JM3-257-2, (E)-2-(2,6-dichlorobenzylidene)-1-methylhydrazine-1-carboximidamide hydroiodide], in that order: 31.2% and 132%.

Turning to `CC(Oc1c(Cl)cccc1Cl)C1=NCCN1` (stereo not shown) [Lofexidine Hcl], the viability at 2.5 µM was 35.4% under setting [1] and 107% under setting [2]. On to `O=C(/C=C/c1ccccc1)NC(NC(=S)Nc1ccc(Cl)cc1)C(Cl)(Cl)Cl` (stereo not shown) [Sal003], for which the “% Cell Survival Cmpd(2.5 μM) + Tuni” value is listed as 33.17%. In addition, the “Compounds ERS (vs Tn)” value (ERS activity vs Tuni = % cell survival (compound)/% cell survival (tunicamycin), compound 2.5 μM) was determined as 1.03.
